According to ChEMBL document CHEMBL5550114, “Disclosure of cinnamic acid/4,9-diaminoacridine conjugates as multi-stage antiplasmodial hits” (Bioorg Med Chem, 2024):
The source made the active and inactive calls. No cut-off for these calls is given here.

What was measured:
Plasmodium falciparum [1] = assay: Antiplasmodial activity against CQ-sensitive blood stage Plasmodium falciparum 3D7 infected in group B human erythrocytes assessed as parasitic growth inhibition measured after 48 hrs by flow cytometry; type: functional, organism-based; settings: 3D7, Erythrocyte
Plasmodium berghei [2] = assay: Antiplasmodial activity against GFP-Luccon-fused liver stage Plasmodium berghei infected in human Huh-7 cells assessed as parasitic growth inhibition at 1 uM measured after 48 hrs by bioluminescence assay; type: functional, organism-based
Huh-7 = assay: Cytotoxicity against human Huh-7 cells assessed as cell viability at 10 uM measured after 48 hrs by Alamar blue staining based analysis; type: toxicity; settings: huh-7, 48 h
Plasmodium berghei [3] = assay: Antiplasmodial activity against GFP-Luccon-fused liver stage Plasmodium berghei infected in human Huh-7 cells assessed as parasitic growth inhibition at 10 uM measured after 48 hrs by bioluminescence assay; type: functional, organism-based
Plasmodium falciparum [4] = assay: Antiplasmodial activity against gametocyte stage Plasmodium falciparum NF54-gexp02-Tom infected in group B human erythrocytes assessed as parasitic growth inhibition measured after 15 days by Geimsa staining based analysis; type: functional, organism-based; settings: Erythrocyte, 360 h
Plasmodium falciparum [5] = assay: Antiplasmodial activity against CQ-sensitive blood stage Plasmodium falciparum 3D7 assessed as parasitic growth inhibition; type: functional, organism-based
Plasmodium berghei [6] = assay: Antiplasmodial activity against GFP-Luccon-fused liver stage Plasmodium berghei infected in human Huh-7 cells assessed as parasitic growth inhibition measured after 48 hrs by Alamar blue staining based analysis; type: functional, organism-based; settings: Huh-7, 48 h

## CCN(CC)CCCNc1c2ccc(Cl)cc2nc2c(NCCCCNC(=O)/C=C/c3ccc(F)cc3)cc(OC)cc12
Plasmodium falciparum [1]
  IC50: 348 nM
Plasmodium berghei [2]
  inhibition: inactive
Huh-7
  Activity: Toxic
Plasmodium berghei [3]
  inhibition: Active

## CCN(CC)CCCC(C)Nc1c2ccc(Cl)cc2nc2c(NCCCCNC(=O)/C=C/c3ccc(F)cc3)cc(OC)cc12 (stereo not drawn)
Plasmodium falciparum [1]
  IC50: 178 nM
Plasmodium berghei [2]
  inhibition: inactive
Huh-7
  Activity: Toxic
Plasmodium berghei [3]
  inhibition: Active
Plasmodium falciparum [4]
  IC50: 645 nM

## CCN(CC)CCCNc1c2ccc(Cl)cc2nc2c(NCCCCNC(=O)/C=C/c3cccc(F)c3)cc(OC)cc12
Plasmodium falciparum [1]
  IC50: 161 nM
Plasmodium berghei [2]
  inhibition: inactive
Huh-7
  Activity: Toxic
Plasmodium berghei [3]
  inhibition: Active
Plasmodium falciparum [4]
  IC50: ~430 nM

## CCN(CC)CCCNc1c2ccc(Cl)cc2nc2c(NCCCCN)cc(OC)cc12
Plasmodium falciparum [5]
  IC50: 440 nM
Plasmodium berghei [2]
  inhibition: inactive
Huh-7
  Activity: Non-Toxic
Plasmodium berghei [3]
  inhibition: Active

## COc1cc(NCCCCNC(=O)/C=C/c2cccc(F)c2)c2nc3cc(Cl)ccc3cc2c1
Plasmodium berghei [2]
  inhibition: inactive
Plasmodium berghei [3]
  inhibition: Active

## COc1cc(NCCCCNC(=O)/C=C/c2ccccc2)c2nc3cc(Cl)ccc3cc2c1
Plasmodium berghei [2]
  inhibition: inactive
Plasmodium berghei [3]
  inhibition: Active

## CCN(CC)CCCNc1c2ccc(Cl)cc2nc2c(NCCCCNC(=O)/C=C/c3ccccc3)cc(OC)cc12
Plasmodium falciparum [1]
  IC50: 80 nM
Plasmodium berghei [2]
  inhibition: inactive
Huh-7
  Activity: Toxic
Plasmodium berghei [3]
  inhibition: Active

## COc1cc(NCCCCNC(=O)/C=C/c2ccc(F)cc2)c2nc3cc(Cl)ccc3cc2c1
Plasmodium berghei [2]
  inhibition: inactive
Plasmodium berghei [3]
  inhibition: Active

## CCN(CC)CCCNc1c2ccc(Cl)cc2nc2c(NCCCCNC(=O)/C=C/c3ccc(OC)cc3)cc(OC)cc12
Plasmodium falciparum [1]
  IC50: 164 nM
Plasmodium berghei [2]
  inhibition: inactive
Huh-7
  Activity: Toxic
Plasmodium berghei [3]
  inhibition: Active
Plasmodium falciparum [4]
  IC50: 474 nM

## CCN(CC)CCCC(C)Nc1c2ccc(Cl)cc2nc2c(NCCCCN)cc(OC)cc12 (stereo not drawn)
Plasmodium falciparum [5]
  IC50: 680 nM
Plasmodium berghei [2]
  inhibition: inactive
Huh-7
  Activity: Non-Toxic
Plasmodium berghei [3]
  inhibition: Active
Plasmodium berghei [6]
  IC50: 11000 nM

## CCN(CC)CCCC(C)Nc1c2ccc(Cl)cc2nc2c(NCCCCNC(=O)/C=C/c3cccc(F)c3)cc(OC)cc12 (stereo not drawn)
Plasmodium falciparum [1]
  IC50: 164 nM
Plasmodium berghei [2]
  inhibition: inactive
Huh-7
  Activity: Toxic
Plasmodium berghei [3]
  inhibition: Active

## COc1ccc(/C=C/C(=O)NCCCCNc2cc(OC)cc3cc4ccc(Cl)cc4nc23)cc1
Plasmodium berghei [2]
  inhibition: inactive
Plasmodium berghei [3]
  inhibition: Active

## CCN(CC)CCCC(C)Nc1ccnc2cc(Cl)ccc12 (stereo not drawn)
Plasmodium berghei [2]
  inhibition: inactive
Plasmodium berghei [3]
  inhibition: Active

## COc1cc(NC(C)CCCN)c2ncccc2c1 (stereo not drawn) [PRIMAQUINE]
Plasmodium berghei [2]
  inhibition: inactive
Plasmodium berghei [3]
  inhibition: Active
Plasmodium falciparum [4]
  IC50: 17700 nM

## CCN(CC)CCCC(C)Nc1c2ccc(Cl)cc2nc2c(NCCCCNC(=O)/C=C/c3ccccc3)cc(OC)cc12 (stereo not drawn)
Plasmodium falciparum [1]
  IC50: 143 nM
Plasmodium berghei [2]
  inhibition: inactive
Huh-7
  Activity: Toxic
Plasmodium berghei [3]
  inhibition: Active
Plasmodium falciparum [4]
  IC50: 461 nM

## CCN(CC)CCCC(C)Nc1c2ccc(Cl)cc2nc2c(NCCCCNC(=O)/C=C/c3ccc(OC)cc3)cc(OC)cc12 (stereo not drawn)
Plasmodium falciparum [1]
  IC50: 153 nM
Plasmodium berghei [2]
  inhibition: inactive
Huh-7
  Activity: Toxic
Plasmodium berghei [3]
  inhibition: Active
